Measured values reported in ChEMBL document CHEMBL3351875, “Synthesis of Deuterated Benzopyran Derivatives as Selective COX-2 Inhibitors with Improved Pharmacokinetic Properties” (ACS Med Chem Lett, 2014).
One block for each molecule: values may come before it.

Experiments:
[1] = AUC (0 to infinity) in Sprague-Dawley rat at 10 mg/kg, iv measured during 1 to 24 hrs by LC-MS method; type: ADME, organism-based; set-up: time infinity, dose 10 mg/kg, route intravenous; conditions: plasma
[2] = Apparent oral clearance in Sprague-Dawley rat at 10 mg/kg, iv measured during 1 to 24 hrs by LC-MS method; type: ADME, organism-based; set-up: dose 10 mg/kg, route oral; conditions: in vivo
[3] = AUC (0 to infinity) in Sprague-Dawley rat at 30 mg/kg, po measured during 1 to 24 hrs by LC-MS method; type: ADME, organism-based; set-up: time infinity, dose 30 mg/kg, route oral; conditions: plasma
[4] = Cmax in Sprague-Dawley rat at 10 mg/kg, iv measured during 1 to 24 hrs by LC-MS method; type: ADME, organism-based; set-up: dose 10 mg/kg, route intravenous; conditions: in vivo
[5] = system: Rattus norvegicus; assay: Half life in Sprague-Dawley rat at 10 mg/kg, iv measured during 1 to 24 hrs by LC-MS method; type: ADME, organism-based; set-up: dose 10 mg/kg, route intravenous; conditions: in vivo
[6] = Volume of distribution in Sprague-Dawley rat at 10 mg/kg, iv measured during 1 to 24 hrs by LC-MS method; type: ADME, organism-based; set-up: dose 10 mg/kg, route intravenous; conditions: in vivo
[7] = Tmax in Sprague-Dawley rat at 30 mg/kg, po measured during 1 to 24 hrs by LC-MS method; type: ADME, organism-based; set-up: dose 30 mg/kg, route oral; conditions: in vivo
[8] = system: Rattus norvegicus; assay: Volume of distribution in Sprague-Dawley rat at 30 mg/kg, po measured during 1 to 24 hrs by LC-MS method; type: ADME, organism-based; set-up: dose 30 mg/kg, route oral; conditions: in vivo
[9] = Oral bioavailability in Sprague-Dawley rat at 30 mg/kg measured during 1 to 24 hrs by LC-MS method; type: ADME, organism-based; conditions: in vivo
[10] = Apparent oral clearance in Sprague-Dawley rat at 30 mg/kg, po measured during 1 to 24 hrs by LC-MS method; type: ADME, organism-based; set-up: dose 30 mg/kg, route oral; conditions: in vivo
[11] = Half life in Sprague-Dawley rat at 30 mg/kg, po measured during 1 to 24 hrs by LC-MS method; type: ADME, organism-based; set-up: dose 30 mg/kg, route oral; conditions: in vivo
[12] = Cmax in Sprague-Dawley rat at 30 mg/kg, po measured during 1 to 24 hrs by LC-MS method; type: ADME, organism-based; set-up: dose 30 mg/kg, route oral; conditions: in vivo
[13] = Oral bioavailability in Sprague-Dawley rat at 5 mg/kg measured during 1 to 24 hrs by LC-MS method; type: ADME, organism-based; conditions: in vivo
[14] = Apparent oral clearance in Sprague-Dawley rat at 5 mg/kg, po measured during 1 to 24 hrs by LC-MS method; type: ADME, organism-based; set-up: dose 5 mg/kg, route oral; conditions: in vivo
[15] = target: Prostaglandin G/H synthase 1 (Homo sapiens, UniProt P23219); assay: Inhibition of human recombinant COX1 pre-incubated for 15 mins before fluorometric substrate addition by fluorescence based assay
[16] = system: Rattus norvegicus; assay: Antiinflammatory activity in orally dosed Sprague-Dawley rat model of carrageenan-induced air pouch inflammation assessed as reduction in PGE2 level by ELISA method; type: functional, organism-based
[17] = system: Rattus norvegicus; assay: AUC (0 to infinity) in Sprague-Dawley rat at 2.5 mg/kg, iv measured during 1 to 24 hrs by LC-MS method; type: ADME, organism-based, Plasma; set-up: time infinity, dose 2.5 mg/kg, route intravenous; conditions: in vivo
[18] = system: Rattus norvegicus; assay: AUC (0 to infinity) in Sprague-Dawley rat at 5 mg/kg, po measured during 1 to 24 hrs by LC-MS method; type: ADME, organism-based, Plasma; set-up: time infinity, dose 5 mg/kg, route oral; conditions: in vivo
[19] = system: Rattus norvegicus; assay: Volume of distribution in Sprague-Dawley rat at 5 mg/kg, po measured during 1 to 24 hrs by LC-MS method; type: ADME, organism-based; set-up: dose 5 mg/kg, route oral; conditions: in vivo
[20] = system: Rattus norvegicus; assay: Antinociceptive activity in orally dosed Sprague-Dawley rat model of carrageenan-induced foot paw hyperalgesia assessed as paw withdrawal latency; type: functional, organism-based
[21] = system: Rattus norvegicus; assay: Antiinflammatory activity in orally dosed Sprague-Dawley rat model of carrageenan-induced foot paw edema assessed as reduction in edema by plethysmometry; type: functional, organism-based
[22] = Cmax in Sprague-Dawley rat at 5 mg/kg, po measured during 1 to 24 hrs by LC-MS method; type: ADME, organism-based; set-up: dose 5 mg/kg, route oral; conditions: in vivo
[23] = system: Rattus norvegicus; assay: Half life in Sprague-Dawley rat at 2.5 mg/kg, iv measured during 1 to 24 hrs by LC-MS method; type: ADME, organism-based; set-up: dose 2.5 mg/kg, route intravenous; conditions: in vivo
[24] = target: T1, Prostaglandin G/H synthase 2 (Homo sapiens, UniProt P35354); assay: Inhibition of human recombinant COX2 pre-incubated for 15 mins before fluorometric substrate addition by fluorescence based assay
T1 sequence (P35354 whole entry): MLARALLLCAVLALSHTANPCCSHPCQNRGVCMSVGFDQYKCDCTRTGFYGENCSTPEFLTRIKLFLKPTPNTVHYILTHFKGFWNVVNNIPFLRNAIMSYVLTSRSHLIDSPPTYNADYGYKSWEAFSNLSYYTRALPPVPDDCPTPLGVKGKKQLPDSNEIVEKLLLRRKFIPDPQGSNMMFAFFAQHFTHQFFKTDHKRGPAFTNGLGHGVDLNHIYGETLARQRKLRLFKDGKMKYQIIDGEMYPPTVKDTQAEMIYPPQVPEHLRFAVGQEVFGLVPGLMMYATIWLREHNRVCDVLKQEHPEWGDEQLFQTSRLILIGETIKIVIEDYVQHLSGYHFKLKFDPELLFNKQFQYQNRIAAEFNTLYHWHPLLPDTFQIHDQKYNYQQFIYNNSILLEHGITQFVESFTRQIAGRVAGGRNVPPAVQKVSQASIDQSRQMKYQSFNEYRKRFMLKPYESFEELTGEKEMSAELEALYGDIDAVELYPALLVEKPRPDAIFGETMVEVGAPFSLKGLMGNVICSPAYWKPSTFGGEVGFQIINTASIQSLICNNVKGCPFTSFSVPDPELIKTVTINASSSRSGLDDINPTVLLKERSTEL

[25] = system: Rattus norvegicus; assay: Half life in Sprague-Dawley rat at 5 mg/kg, po measured during 1 to 24 hrs by LC-MS method; type: ADME, organism-based; set-up: dose 5 mg/kg, route oral; conditions: in vivo
[26] = Cmax in Sprague-Dawley rat at 2.5 mg/kg, iv measured during 1 to 24 hrs by LC-MS method; type: ADME, organism-based; set-up: dose 2.5 mg/kg, route intravenous; conditions: in vivo
[27] = Apparent oral clearance in Sprague-Dawley rat at 2.5 mg/kg, iv measured during 1 to 24 hrs by LC-MS method; type: ADME, organism-based; set-up: dose 2.5 mg/kg, route oral; conditions: in vivo
[28] = system: Rattus norvegicus; assay: Antiarthritic activity in Lewis rat model of adjuvant-induced arthritis administrated by oral gavage once daily; type: functional; conditions: tested as the 2H-labelled form
[29] = system: Rattus norvegicus; assay: Tmax in Sprague-Dawley rat at 5 mg/kg, po measured during 1 to 24 hrs by LC-MS method; type: ADME, organism-based; set-up: dose 5 mg/kg, route oral; conditions: in vivo
[30] = Volume of distribution in Sprague-Dawley rat at 2.5 mg/kg, iv measured during 1 to 24 hrs by LC-MS method; type: ADME, organism-based; set-up: dose 2.5 mg/kg, route intravenous; conditions: in vivo

Prostaglandin G/H synthase 1, sequence (P23219 whole entry): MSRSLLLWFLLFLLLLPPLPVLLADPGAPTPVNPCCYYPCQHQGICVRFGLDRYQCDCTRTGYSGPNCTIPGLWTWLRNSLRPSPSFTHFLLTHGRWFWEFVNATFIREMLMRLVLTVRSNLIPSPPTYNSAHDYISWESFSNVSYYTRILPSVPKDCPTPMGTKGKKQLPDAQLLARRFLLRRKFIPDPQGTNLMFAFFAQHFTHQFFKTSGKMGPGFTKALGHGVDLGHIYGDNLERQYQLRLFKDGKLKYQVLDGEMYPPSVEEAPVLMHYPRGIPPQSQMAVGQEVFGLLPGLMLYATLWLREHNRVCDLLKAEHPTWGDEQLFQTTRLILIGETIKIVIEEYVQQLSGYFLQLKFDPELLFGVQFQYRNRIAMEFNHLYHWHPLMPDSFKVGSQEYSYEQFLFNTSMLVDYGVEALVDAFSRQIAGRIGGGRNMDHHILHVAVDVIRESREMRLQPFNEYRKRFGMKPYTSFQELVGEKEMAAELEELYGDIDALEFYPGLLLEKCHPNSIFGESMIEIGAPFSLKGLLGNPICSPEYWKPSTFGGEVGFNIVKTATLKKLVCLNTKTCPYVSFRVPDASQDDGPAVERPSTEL

AUC(0-inf) [1]: 223 µg·h/mL | CL/F [2]: 0.783 mL/min/kg | AUC(0-inf) [3]: 403 µg·h/mL | Cmax [4]: 51600 ng/mL | t1/2 [5]: 5.946 h | Vd [6]: 0.39 L/kg | Tmax [7]: 1.25 h | Vd [8]: 0.491 L/kg | bioavailability [9]: 60.2% | CL/F [10]: 1.25 mL/min/kg | half-life [11]: 4.54 h | Cmax [12]: 33500 ng/mL
SMILES: [2H]C([2H])([2H])C([2H])([2H])c1cc(OC(F)(F)F)cc2c1OC(C(F)(F)F)C(C(=O)O)=C2 (stereo not given)

bioavailability [13]: 46.3% | CL/F [14]: 4.97 mL/min/kg | IC50 [15]: > 100000 nM | EC50 [16]: 0.47 mg/kg | AUC [17]: 14.843535 µg·h/mL | AUC [18]: 17.19028 µg·h/mL | Vd [19]: 0.65 L/kg | EC50 [20]: 3.52 mg/kg | EC50 [21]: 3.47 mg/kg | Cmax [22]: 11500 ng/mL | t1/2 [23]: 0.58 h | IC50 [24]: 28 nM | t1/2 [25]: 1.51 h | Cmax [26]: 38600 ng/mL | CL/F [27]: 2.87 mL/min/kg | Tmax [29]: 0.438 h | Vd [30]: 0.15 L/kg
SMILES: Cc1cc(Br)cc2c1OC(C(F)(F)F)C(C(=O)O)=C2 (stereo not given)
inhibition [28]: Dose-dependent effect
